Columns and labels:
Assay in all cases: GRmax, 72 h; higher = less effect;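 also: breast cell lines in 384-well plates, nine doses across a 10^4 range, Dye Drop imaging of viable cells vs DMSO and time-zero plates, GR 0 means no net growth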
SUM229PE = system: SUM229PE
T47D = system: T47D
HS578T = system: HS578T
SUM52PE = system: SUM52PE
CAL851 = system: CAL851
AU565 = system: AU565
MDAMB361 = system: MDAMB361
SUM185PE = system: SUM185PE
MDAMB453 = system: MDAMB453
SUM44PE = system: SUM44PE
MDAMB231 = system: MDAMB231
ZR751 = system: ZR751
EVSAT = system: EVSAT

| SMILES | GRmax, 72 h (SUM229PE) | GRmax, 72 h (T47D) | GRmax, 72 h (HS578T) | GRmax, 72 h (SUM52PE) | GRmax, 72 h (CAL851) | GRmax, 72 h (AU565) | GRmax, 72 h (MDAMB361) | GRmax, 72 h (SUM185PE) | GRmax, 72 h (MDAMB453) | GRmax, 72 h (SUM44PE) | GRmax, 72 h (MDAMB231) | GRmax, 72 h (ZR751) | GRmax, 72 h (EVSAT) |
| --- | --- | --- | --- | --- | --- | --- | --- | --- | --- | --- | --- | --- | --- |
| COc1ccc2c(c1)[C@]1(C[C@H]1c1ccc3c(/C=C/c4ccc(CN5C[C@@H](C)O[C@@H](C)C5)cc4)n[nH]c3c1)C(=O)N2 | -0.0183 GR | -0.0071 GR | -0.103 GR | 0.121 GR | -0.11 GR | -0.165 GR | 0.272 GR | 0.364 GR | 0.0847 GR | -0.249 GR | 0.0653 GR | 0.166 GR | -0.0524 GR |
| COc1cccc(OCCCN)c1-c1cc(Nc2cnc(C#N)cn2)n[nH]1 | -0.112 GR | 0.428 GR | -0.359 GR | -0.292 GR | 0.0306 GR | 0.0394 GR | -0.386 GR | 0.559 GR | -0.513 GR | -0.79 GR | -0.172 GR | 0.384 GR | 0.713 GR |
| CC(=O)Nc1cccc(-n2c(=O)n(C3CC3)c(=O)c3c(Nc4ccc(I)cc4F)n(C)c(=O)c(C)c32)c1 (max 1 µM) | 0.172 GR | 0.58 GR | 0.193 GR | 0.577 GR | 0.234 GR | 1.01 GR | 0.502 GR | 0.904 GR | 0.0489 GR | 0.56 GR | -0.178 GR | 0.266 GR | 0.939 GR |
| CCc1cnn2c(NCc3ccc[n+]([O-])c3)cc(N3CCCC[C@H]3CCO)nc12 (max 1 µM) | -0.21 GR | -0.211 GR | -0.239 GR | -0.33 GR | -0.241 GR | -0.752 GR | -0.275 GR | 0.18 GR | -0.257 GR | -0.925 GR | -0.42 GR | -0.406 GR | 0.0834 GR |
| CC(=O)c1c(C)c2cnc(Nc3ccc(N4CCNCC4)cn3)nc2n(C2CCCC2)c1=O (max 3.162 µM) | 0.4 GR | 0.117 GR | 0.305 GR | 0.346 GR | 1.08 GR | 0.177 GR | 0.148 GR | 0.852 GR | 0.0416 GR | 0.437 GR | 0.206 GR | 0.482 GR | 0.646 GR |
| CCc1cncnc1N1CCN(Cc2nc3ccc(C(F)(F)F)cc3[nH]2)CC1 (max 10 µM) | 0.743 GR | 0.366 GR | 0.914 GR | 0.446 GR | 1.02 GR | 0.476 GR | 0.192 GR | 0.182 GR | 0.0482 GR | 0.292 GR | 0.854 GR | 0.867 GR | 0.711 GR |
| CCCCOc1c(C(=O)c2c(F)cc(C)cc2F)c[nH]c2nncc1-2 (max 10 µM) | 0.0454 GR | 0.0035 GR | -0.0288 GR | 0.299 GR | -0.012 GR | -0.158 GR | 0.216 GR | 0.905 GR | 0.31 GR | -0.234 GR | 0.227 GR | 0.451 GR | 0.279 GR |
| CCN1CCN(Cc2ccc(Nc3ncc(F)c(-c4cc(F)c5nc(C)n(C(C)C)c5c4)n3)nc2)CC1 (max 10 µM) | 0.146 GR | -0.0412 GR | -0.583 GR | 0.332 GR | -0.224 GR | -0.321 GR | -0.342 GR | 0.486 GR | -0.765 GR | -0.763 GR | -0.487 GR | 0.311 GR | -0.545 GR |
| CNc1nc(-c2ccc3c(N)n[nH]c3c2)cc(N2C[C@@H](C(=O)NC3CCCCC3)CC[C@H]2C)n1 (max 10 µM) | 0.696 GR | 0.164 GR | 0.538 GR | 0.386 GR | 0.506 GR | 0.391 GR | -0.417 GR | 0.54 GR | 0.147 GR | 0.166 GR | 0.662 GR | 0.425 GR | -0.049 GR |
| CO[C@@H](C)Cn1c(=O)n(C)c2cnc3ccc(-c4cncc(C(C)(C)O)c4)cc3c21 (max 10 µM) | 0.0211 GR | -0.289 GR | 0.0776 GR | -0.125 GR | -0.0445 GR | -0.533 GR | -0.988 GR | -0.0606 GR | -0.578 GR | -0.855 GR | -0.136 GR | -0.117 GR | -0.384 GR |
| Cc1nn(C)c(COc2ccc(N3CCN(S(=O)(=O)N(C)C)CC3)cc2)c1-c1cccc2c(CCCOc3cccc4ccccc34)c(C(=O)O)n(CCN3CCOCC3)c12 (max 10 µM) | 0.547 GR | 0.575 GR | 0.942 GR | 0.373 GR | 1.01 GR | 0.611 GR | 0.985 GR | 0.532 GR | 0.933 GR | -0.463 GR | 0.957 GR | 1.03 GR | 0.901 GR |
| CN(C)CC[C@H](CSc1ccccc1)Nc1ccc(S(=O)(=O)NC(=O)c2ccc(N3CCN(Cc4ccccc4-c4ccc(Cl)cc4)CC3)cc2)cc1[N+](=O)[O-] [ABT-737] (max 10 µM) | 0.418 GR | 0.589 GR | 0.775 GR | 0.441 GR | 0.934 GR | 0.261 GR | 0.844 GR | -0.294 GR | 0.152 GR | -0.0028 GR | -0.12 GR | 0.886 GR | 0.697 GR |
| C=CCn1c(=O)c2cnc(Nc3ccc(N4CCN(C)CC4)cc3)nc2n1-c1cccc(C(C)(C)O)n1 [AZD1775] (max 10 µM) | -0.259 GR | 0.162 GR | -0.394 GR | -0.226 GR | -0.55 GR | -0.485 GR | -0.348 GR | 0.213 GR | -0.249 GR | -0.813 GR | -0.282 GR | 0.247 GR | -0.39 GR |
| CNC(=O)c1cccc(-c2ccc3c(N4CCOC[C@@H]4C)nc(N4CCOC[C@@H]4C)nc3n2)c1 [AZD2014] (max 10 µM) | 0.338 GR | -0.0708 GR | 0.273 GR | -0.0804 GR | 0.114 GR | -0.0212 GR | -0.756 GR | 0.244 GR | 0.134 GR | -0.315 GR | 0.241 GR | -0.0477 GR | -0.21 GR |
| NC1(C(=O)N[C@@H](CCO)c2ccc(Cl)cc2)CCN(c2nc[nH]c3nccc2-3)CC1 [AZD5363] (max 10 µM) | 0.516 GR | 0.179 GR | 0.349 GR | 0.18 GR | 0.592 GR | 0.373 GR | -0.38 GR | 0.447 GR | 0.23 GR | -0.152 GR | 1.05 GR | 0.686 GR | -0.441 GR |

Reference: the supplement of paper PMC9663587
